Measured values from patent US7547713B2, “O-pyridinequinone derivatives, the composition containing the derivatives, the process for preparation of the derivatives and the use of the derivatives” (priority 2002, dated 2009).
“Also recorded” adds a separate entry of the source. Where two headings read alike, the source gives them in different places.

How the values were obtained:
[1] = test system: mouse skin capillary permeability; experiment: Increment of the mouse skin capillary permeability (xylene, Evans blue); format: in vivo; conditions: OD at 590 nm, blank control 0.442 ± 0.240, lower is better
Text: One hundred and seventy healthy male mice were divided randomly into 17 groups, 10 mice per group, namely, the blank control group, the high, medium, and low dosage groups of 5,6-di(m-acetylphenylamino)-2,3-pyridindione, respectively, the high, medium, and low dosage groups of 5,6-di(m-carboxylphenylamino)-2,3-pyridindione, respectively, the high, medium, and low dosage groups of 5,6-di(p-carboxylphenylamino)-2,3-pyridindione, respectively, the high, medium, and low dosage groups of 5,6-di(p-chlorophenylamino)-2,3-pyridindione, respectively, the high, medium, and low dosage groups of 5,6-di(p-tolylamino)-2,3-pyridindione, and the aspirin group as the positive control group. The mice were administered via gastro infusion according to the Table 5, and 1 hour later, 0.5%. Evans blue saline was injected into the mice via tail vain at 0.1 ml/10 g, then xylene with a dosage of 0.03 ml/mouse was applied to the mice in the shaved area at the middle belly. The mice were killed by cervical dislocation 20 min later, and their belly skin was peeled off, where the blue area was removed by using a biopsy punch, broken up by using surgery scissors, and put into covered glass tubes. Seven milliliters of acetone/water (7:3, v/v) solution was added into each tube, which was then stored in the dark and was gently shaken up 2-3 times daily. After 3 days, the solution in each tube was centrifuged at 2000 rpm for 10 min, and the supernatant was measured for optical density at 590 nm with the absorption of acetone/water (7:3, v/v) solution as the baseline. The lower the OD value, the better the anti-inflammatory effect.

[2] = test system: rat model of toe swelling; experiment: Rat model of toe swelling (3% formaldehyde); format: in vivo; conditions: toe volume 2 hours after injection
Description: Forty healthy male rats were divided randomly into 4 groups, 10 rats per group, namely, the blank control group, the 5,6-di(m-acetylphenylamino)-2,3-pyridindione group, the 5,6-di(m-carboxylphenylamino)-2,3-pyridindione group, and the aspirin group as the drug control group. 0.1 ml of inflammation inducer (3% formaldehyde) was subcutaneously injected into the right toe of the hind leg of each rat. After 24 hours, the compounds with dosage listed in Table 1 were injected into the rats, respectively. The volume of the toes was measured 2 hours later after injection by using the Water Volume Method described in the Methodology of Pharmacology Experiments, 2nd edition, Shu-yun Xu, etc., People's Medical Publishing House, Beijing, 1991.

[3] = test system: mouse model of auricle swelling; experiment: Mouse model of auricle swelling (xylene); format: in vivo; conditions: xylene after 60 min, killed 4 hours later
Description: Forty healthy male mice were divided randomly into 4 groups, 10 mice per group, namely, the blank control group, the 5,6-di(m-acetylphenylamino)-2,3-pyridindione group, the 5,6-di(m-carboxylphenylamino)-2,3-pyridindione group, and the aspirin group as the drug control group. The compounds with dosage listed in Table 2 were administered orally to the […], respectively. After 60 min 0.05 ml xylene (analytical grade) was applied on the right ear of each mouse, respectively. The mice were killed 4 hours later, a disk of ear tissue was removed from the same location of both ears using a 5.5-mm biopsy punch, then each of the ear disks was weighed, and the rates of auricle swelling inhibition were calculated, as listed in Table 2.

[4] = test system: animal model of anti-histamine; experiment: Animal model of anti-histamine (Evans blue, dyed back skin); format: in vivo; conditions: rat; for Inhibition rate (%): histamine s.c., Evans blue; for Absorbency(A): blank control 0.099
Description: Forty healthy male rats were divided randomly into 4 groups, […], namely, the blank control group, the 5,6-di(m-acetylphenylamino)-2,3-pyridindione group, the 5,6-di(m-carboxylphenylamino)-2,3-pyridindione group, and the aspirin group as the positive control group. The compounds with dosage listed in Table 3 were administered orally to the rats, respectively, then 0.1 ml of […] was administered subcutaneously, and then 1 ml of 1% Evans blue was immediately injected intravenously under the tongue.

COX-1 = COX-1 (Homo sapiens, UniProt P23219); experiment: Inhibition of COX-1 (TMPD/arachidonic acid, absorption at 611 nm); format: biochemical
Description: Methods: 4 μl of COX-1 was added to 960 μl 0.1 M Tris-HCl in a cell. The mixture was equilibrated for 30s, and then added with 1 μl inhibitor. After 2 min, 15 μl TMPD and 15 μl A.A. were immediately added to the mixture and mixed well. After 7 min, the absorption was measured at 611 nm.

COX-2 = biological target: T1, COX-2 (Homo sapiens, UniProt P35354); experiment: Inhibition of COX-2 in COLO 205 cell line (Prostaglandin E2 EIA); format: cell-based
T1 construct: host or cells: COLO 205
T1 sequence (P35354 18-604): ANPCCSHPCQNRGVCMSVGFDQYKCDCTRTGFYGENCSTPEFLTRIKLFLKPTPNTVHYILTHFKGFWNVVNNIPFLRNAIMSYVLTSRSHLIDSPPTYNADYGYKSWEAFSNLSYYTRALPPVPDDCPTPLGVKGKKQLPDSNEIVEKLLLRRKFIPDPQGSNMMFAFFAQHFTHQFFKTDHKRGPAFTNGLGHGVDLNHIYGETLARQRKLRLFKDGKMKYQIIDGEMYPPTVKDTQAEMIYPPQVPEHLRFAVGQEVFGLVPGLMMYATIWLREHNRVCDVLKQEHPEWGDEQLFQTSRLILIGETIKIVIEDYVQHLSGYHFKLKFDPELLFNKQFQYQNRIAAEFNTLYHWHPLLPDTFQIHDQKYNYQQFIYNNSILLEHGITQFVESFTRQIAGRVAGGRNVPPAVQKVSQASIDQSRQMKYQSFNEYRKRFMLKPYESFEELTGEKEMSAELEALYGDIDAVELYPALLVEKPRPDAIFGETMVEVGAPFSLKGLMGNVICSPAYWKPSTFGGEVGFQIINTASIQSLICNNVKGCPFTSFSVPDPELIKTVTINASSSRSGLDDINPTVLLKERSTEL
Text: Enzyme-Linked ImmunoSorbent Assay Kit (Prostaglandins E2 (PEG2) EIA Kit-Monoclonal, Cayman Chemical company (U.S.A)).

mice = conditions: mouse, in vivo; for Death rate: both, 7 days
Description: Toxicological test of 5,6-di(m-acetylphenylamino)-2,3-pyridindione Single dose administration was used. 5,6-di(m-acetylphenylamino)-2,3-pyridindione was prepared to the required concentration with the presence of 0.5% DMSO. Sixty healthy male mice and 60 healthy female mice were divided randomly into 10 mice per group, 12 groups, among which 5 groups were administered by tail vein injection, and 5 groups were administered via gastro infusion, and the other two groups were used as negative controls. The activities and death of mice were observed and recorded for 7 days after the administration of the compound.

[5] = gastro infusion 1.0 mg/kg (low dosage)
[6] = gastro infusion 3.2 mg/kg (medium dosage)
[7] = gastro infusion 6.5 mg/kg (high dosage)
[8] = 5 mg/kg injected 24 h after formaldehyde

COX-1, sequence (P23219 24-599): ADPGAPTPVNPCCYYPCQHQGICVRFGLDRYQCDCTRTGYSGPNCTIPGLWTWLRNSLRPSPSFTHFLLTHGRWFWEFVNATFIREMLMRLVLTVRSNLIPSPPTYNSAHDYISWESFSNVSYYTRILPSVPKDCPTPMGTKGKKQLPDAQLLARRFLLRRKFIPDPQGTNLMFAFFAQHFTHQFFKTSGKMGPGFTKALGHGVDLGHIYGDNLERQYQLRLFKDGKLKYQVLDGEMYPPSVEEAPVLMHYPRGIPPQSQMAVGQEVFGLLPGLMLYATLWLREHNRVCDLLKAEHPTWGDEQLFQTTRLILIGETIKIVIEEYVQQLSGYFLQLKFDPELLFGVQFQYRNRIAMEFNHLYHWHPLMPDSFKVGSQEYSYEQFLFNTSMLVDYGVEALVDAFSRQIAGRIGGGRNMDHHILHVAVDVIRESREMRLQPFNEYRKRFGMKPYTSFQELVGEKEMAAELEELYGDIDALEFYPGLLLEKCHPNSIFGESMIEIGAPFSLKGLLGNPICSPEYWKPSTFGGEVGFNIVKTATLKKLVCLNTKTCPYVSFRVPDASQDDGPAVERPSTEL

Compound	OD (A) [1, 5] [A]	OD (A) [1, 6] [A]	OD (A) [1, 7] [A]	Inhibition rate (%) of toe swelling [2, 8] [%]	Inhibition rate (%) of auricle swelling ([3]; 30 mg/kg orally) [%]	Inhibition rate (%) ([4]; 10 mg/kg orally)	Absorbency(A) ([4]; 10 mg/kg orally)	further results
O=C1C=C(Nc2ccc(Cl)cc2)C(Nc2ccc(Cl)cc2)=NC1=O [5,6-di(p-chlorophenylamino)-2,3-pyridindione]	0.142 ± 0.098	0.035 ± 0.026	0.015 ± 0.015					
Cc1ccc(NC2=CC(=O)C(=O)N=C2Nc2ccc(C)cc2)cc1 [5,6-di(p-tolylamino)-2,3-pyridindione]	0.049 ± 0.049	0.011 ± 0.022	0.051 ± 0.042					
O=C1C=C(Nc2cccc(C(=O)O)c2)C(Nc2cccc(C(=O)O)c2)=NC1=O [5,6-di(m-carboxylphenylamino)-2,3-pyridindione]	0.038 ± 0.026	0.030 ± 0.010	0.036 ± 0.011	45.5	65.5	16	0.084	
O=C1C=C(Nc2ccc(C(=O)O)cc2)C(Nc2ccc(C(=O)O)cc2)=NC1=O [5,6-di(p-carboxylphenylamino)-2,3-pyridindione]	0.089 ± 0.054	0.043 ± 0.023	0.030 ± 0.012					
CC(=O)c1cccc(NC2=CC(=O)C(=O)N=C2Nc2cccc(C(C)=O)c2)c1 [5,6-di(m-acetylphenylamino)-2,3-pyridindione]	0.241 ± 0.121	0.035 ± 0.049	0.019 ± 0.018	62.5	83.2	19	0.081	inhibition effect on COX-1 (COX-1; 1 μl of 10 mM inhibitor in dimethylsulfoxide, compared with control group without inhibitors, FIG. 1): no obvious inhibition effects; also recorded: almost no inhibition effect; inhibition of the activity of COX-2 (COX-2; COLO 205 cell line, PGE2 EIA, FIG. 2): higher inhibition effects on COX-2 than the former two; inhibition of the growth of the COLO205 cells ex vivo (COX-2; FIG. 2 legend): inhibits the growth of the COLO205 cells ex vivo; Death rate (mice; 720 mg/kg): 0; Death rate (mice; 1030 mg/kg): 0; Death rate (mice; 1470 mg/kg): 0; Death rate (mice; 2100 mg/kg): 0; Death rate (mice; 3000 mg/kg): 0; death of the animals (mice): No death of the animals was observed; toxic reaction in aspect of activity, reactivity, back hair, dejecta (mice): normal; Toxic reaction (mice; 720 mg/kg): normal; Toxic reaction (mice; 1030 mg/kg): normal; Toxic reaction (mice; 1470 mg/kg): normal; Toxic reaction (mice; 2100 mg/kg): normal; Toxic reaction (mice; 3000 mg/kg): normal
CC(=O)Oc1ccccc1C(=O)O [Aspirin, reference compound]								inhibition effect on COX-1 (COX-1): inhibited; Inhibition rate (%) of toe swelling ([2]; 50 mg/kg injected 24 h after formaldehyde): 10.1%; Inhibition rate (%) of auricle swelling ([3]; 100 mg/kg orally): 30.1%; Inhibition rate (%) ([4]; 160 mg/kg orally): 13%; Absorbency(A) ([4]; 160 mg/kg orally): 0.086 A
